Source: patent US5525627A, “Esters of acyl carnitines with long-chain aliphatic alcohols and pharmaceutical compositions containing same having antimycotic activity” (Sigma-Tau Industrie Farmaceutiche Riunite S.p.A., priority 1992, dated 1996)

Key:
[1] = tested on: yeast-like fungi; experiment: MIC / MFC for yeast-like fungi, all strains; format: cell-based, Candida, Cryptococcus, Saccharomyces, Torulopsis; conditions: versus susceptible strains; read-out: Mean MIC values
Procedure, shortened: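 Candida, Cryptococcus, Saccharomyces and Torulopsis strains tested by broth microdilution in Yeast Nitrogen Base with 0.15% asparagine and 1.0% glucose, buffered with 0.165 M MOPS; final inoculum about 5.0×10^4 CFU/ml from overnight (Cryptococcus 48-hour) Sabouraud cultures. MFC from spot-transfer of wells without visible growth onto Sabouraud agar.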

[2] = tested on: Candida parapsilosis (ISS 1); experiment: MIC for yeast and yeast-like strains; format: cell-based; conditions: Lodderomyces parapsilosis; 48 hours, 35° C.; read-out: Minimal Inhibitory Concentration (MIC)
Procedure, shortened: (§1)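 Antifungal activity is tested in microtiter plates in which equal volumes of diluted yeast suspension and compound solution are combined. Yeast Nitrogen Base with asparagine (0.15%), glucose (1.0%) and 0.165 M MOPS serves as the medium, and the final inoculum is about 5.0×10^4 CFU/ml.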

[3] = tested on: Candida guilliermondii (ISS 1); experiment: MIC for yeast and yeast-like strains; format: cell-based; conditions: Meyerozyma guilliermondii; 48 hours, 35° C.; read-out: Minimal Inhibitory Concentration (MIC)
Procedure, shortened: as §1

[4] = tested on: Candida albicans (ISS 1); experiment: MIC for yeast and yeast-like strains; format: cell-based; conditions: 48 hours, 35° C., read-out: Minimal Inhibitory Concentration (MIC)
Procedure, shortened: as §1

[5] = tested on: Candida pseudotropicalis (EC 1); experiment: MIC for yeast and yeast-like strains; format: cell-based; conditions: Kluyveromyces marxianus; 48 hours, 35° C.; read-out: Minimal Inhibitory Concentration (MIC)
Procedure, shortened: as §1

[6] = tested on: Candida tropicalis (ISS 1); experiment: MIC for yeast and yeast-like strains; format: cell-based; conditions: 48 hours, 35° C., read-out: Minimal Inhibitory Concentration (MIC)
Procedure, shortened: as §1

[7] = tested on: Candida glabrata (ISS 1); experiment: MIC for yeast and yeast-like strains; format: cell-based; conditions: Nakaseomyces glabratus; 48 hours, 35° C.; read-out: Minimal Inhibitory Concentration (MIC)
Procedure, shortened: as §1

[8] = tested on: Cryptococcus neoformans (ISS 1); experiment: MIC for yeast and yeast-like strains; format: cell-based; conditions: 48 hours, 35° C., read-out: Minimal Inhibitory Concentration (MIC)
Procedure, shortened: as §1

[9] = tested on: Candida albicans (ATCC 2091); experiment: MIC for yeast and yeast-like strains; format: cell-based; conditions: ATCC2091, 48 hours, 35° C., read-out: Minimal Inhibitory Concentration (MIC)
Procedure, shortened: as §1

[10] = Test 1: body and lymphoid organ weight in SRBC immunized mice; format: in vivo, mice (male B6 D2F1); conditions: 100 mg/kg/day per os, day -2 through day +2; x ± S.E.
Method: Test 1: Evaluation of the "in vitro-ex vivo" effect of repeated oral administrations of ST 722 on the primary antibody production (Jerne test) in the spleen of SRBC (Sheep Red Blood Cells) immunized mice.
Male B6 D2F1 mice (C. River) aged 8 weeks (6 animals each group) were utilized.
The substance (ST 722) was administered per os at the dose of 100 mg/kg/day from day -2 through day +2 (immunization at day 0). The animals were immunized by intraperitoneal route with a concentration of 1.0×10^8 cells/mouse in 0.2 ml of sterile saline.
Five days later, spleens to be submitted to teasing process were removed from the animals sacrificed by cervical dislocation. After standardization at 1.0×10^7 cells/ml. the splenocytes (0.1 ml) were mixed with warm agar-Hank's (2 ml) and 10% SRBC in PBS (0.2 ml) and seeded in Petri dishes (samples tested in triplicates) and incubated at 37° C. for 60 min.

[11] = tested on: C. albicans PG; experiment: Systemic experimental infection with Candida albicans in mice; format: in vivo, Candida albicans in mice (male CD1); conditions: for % Mortality / Dead/Total: 60 days follow-up; for MST (mean survival time): range of variation in brackets, footnote p ≤ 0.05 (MannWithney "U" test), mark lost
Method: Male CD1 mice (C. River) aged 6 or 13 weeks were used (12-15 animals per group).
The pathogenic strain of Candida utilized, i.e. C. albicans PG, was able, when inoculated intravenously, to cause multiple renal lesions and systemic dissemination, provoking death of the animals within 40 days from the challenge.
A broth culture in Sabouraud broth is prepared from a 48-hour agar slant culture.
After incubation for 48 hours at 37° C., the broth culture is first washed 3 times with sterile saline, then adjusted to a concentration of 2.0×10^6 cells/ml. Volumes of 0.25 ml of this suspension are i.v. injected into the animals, with a resulting infective dose approximately corresponding to DL100.
ST 722 was administered per os following two different protocols:
I) 100 mg/kg administered at +2, +12, +24, +36 and +48 hours (i.e. 5 administrations in two days) with respect to the challenge.
II) 100 mg/kg administered twice daily on 6 consecutive days (i.e. 12 adimistrations) starting from day -2 to day +3 with respect to the day of inoculation (day 0).
After the challenge, the animals were followed up for 60 days, and the percent mortality as well as the mean survival time (MST) were evaluated. The statistical significance of the results was evaluated by means of Fisher "exact test" and Mann-Withney "U" test, respectively.

[12] = protocol I: 100 mg/kg per os at +2, +12, +24, +36, +48 hours
[13] = protocol II: 100 mg/kg per os twice daily, day -2 to day +3

With `CCCCCCCCCCCOC(=O)C[C@H](C[N+](C)(C)C)OC(=O)CC(C)C` [ST 722, isovaleryl-L-carnitine undecyl ester chloride] the MIC [1] was 3.76 µg/mL, the MIC [2] was 6.25 µg/mL and the MIC [3] was 6.25 µg/mL. For the same compound, the MIC [4] was 1.56 µg/mL, the MIC [5] was 6.25 µg/mL and the MIC [6] was 3.12 µg/mL. For the same compound, the MIC [7] was 6.25 µg/mL, the MIC [8] was 3.12 µg/mL and the MIC [9] was 3.12 µg/mL. It also gave a Body weight [10] of 25.12 ± 0.77 g, a Spleen weight [10] of 94.33 ± 4.12 mg and a Thymus weight [10] of 59.50 ± 3.62 mg. The “protective effect” value ([11]; protocol I and II, per os) was “only in terms of MST prolongation”, the “% Mortality” value [11, 12] was 71.4% and the Dead/Total [11, 12] was 10/14. For the same compound, the “MST (mean survival time)” value ([11]; protocol I) was 37 (25-≥60) days, the “percent mortality” value ([11]; protocol II, per os) was “completely unaffected” and the “% Mortality” value [11, 13] was 71.4%. The Dead/Total [11, 13] was 10/14 and the “MST (mean survival time)” value ([11]; protocol II) was 44 (32-≥60) days.
